The experiment deals with mouse colorectal cancer cell CT26. The experiment can be described thus: Anti-tumor effect in tumor-bearing mice, transition of tumor volume. It is filed as in vivo, mice (BALB/c). The conditions noted are these: i.v. injection, α-mangostin 10 mg/kg, nanoparticles of average particle size 20 nm, FIG. 9. As to the method: The anti-tumor effect of the particles of the present invention containing α-mangostin was examined using mice (BALB/c, 7 weeks old, male) that bore the mouse colorectal cancer cell CT26. It was confirmed that the size of the tumor that the mice bore reached 100 mm^3 (7 days after), and a sample was intravenously administered (i. v. injection). The doses of α-mangostin at this time were standardized to 10 mg/kg. The transition of the tumor volume was observed after the administration.
Nanoparticles: average particle size: 20 nm (produced under the conditions of X (TX100): 0.15 mM and Y (ECH): 2.1 mL of Production Example 5) α-mangostin: Tokyo Chemical Industry Co., Ltd. Buffer solution: phosphate buffer (pH 7.5) nanoparticles containing no α-mangostin: only the nanoparticles (50 mg/mL) α-mangostin solution: α-mangostin solution (1.0 mM) containing 0.4 vol % DMSO, 2 vol % ethanol, and 2 vol TWEEN 80 (surfactant) nanoparticles containing α-mangostin: solution in which α-mangostin was contained in the nanoparticles (nanoparticle concentration: 50 mg/mL, α-mangostin concentration: 1.0 mM) Experimental data (animal experiment using mice)

In the case of `COc1c(O)cc2oc3cc(O)c(CC=C(C)C)c(O)c3c(=O)c2c1CC=C(C)C` [MGS, α-mangostin], the “effect of suppressing the cancer growth (tumor volume)” value is listed as “not observed”.
